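Following 48 hours of exposure in 96-well plates, responses at five concentrations were used to interpolate endpoints linearly. At the GI50, growth is halved. At the TGI there is no net growth.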
Key:
Experiment in all cases: growth of human tumour cells (NCI), 48 h
786-0 renal = test system: 786-0 renal
A498 renal = test system: A498 renal
A549 NSCLC = test system: A549 NSCLC
ACHN renal = test system: ACHN renal
BT-549 breast = test system: BT-549 breast
CAKI-1 renal = test system: CAKI-1 renal
CCRF-CEM leukemia = test system: CCRF-CEM leukemia
COLO 205 colon = test system: COLO 205 colon
DU-145 prostate = test system: DU-145 prostate
EKVX NSCLC = test system: EKVX NSCLC
HCC-2998 colon = test system: HCC-2998 colon
HCT-116 colon = test system: HCT-116 colon
HCT-15 colon = test system: HCT-15 colon
HL-60(TB) leukemia = test system: HL-60(TB) leukemia
HOP-62 NSCLC = test system: HOP-62 NSCLC
HOP-92 NSCLC = test system: HOP-92 NSCLC
HS 578T breast = test system: HS 578T breast
IGROV1 ovarian = test system: IGROV1 ovarian
K-562 leukemia = test system: K-562 leukemia
KM12 colon = test system: KM12 colon
LOX IMVI melanoma = test system: LOX IMVI melanoma
M14 melanoma = test system: M14 melanoma
MALME-3M melanoma = test system: MALME-3M melanoma
MCF7 breast = test system: MCF7 breast
MDA-MB-231 breast = test system: MDA-MB-231 breast
MDA-MB-435 = test system: MDA-MB-435
MOLT-4 leukemia = test system: MOLT-4 leukemia
NCI-H226 lung = test system: NCI-H226 lung
NCI-H23 lung = test system: NCI-H23 lung
NCI-H460 lung = test system: NCI-H460 lung
NCI-H522 lung = test system: NCI-H522 lung
NCI/ADR-RES ovarian = test system: NCI/ADR-RES ovarian
OVCAR-3 ovarian = test system: OVCAR-3 ovarian
OVCAR-4 ovarian = test system: OVCAR-4 ovarian
OVCAR-5 ovarian = test system: OVCAR-5 ovarian
OVCAR-8 ovarian = test system: OVCAR-8 ovarian
PC-3 prostate = test system: PC-3 prostate
RPMI-8226 leukemia = test system: RPMI-8226 leukemia
RXF 393 renal = test system: RXF 393 renal
SF-268 CNS = test system: SF-268 CNS
SF-295 CNS = test system: SF-295 CNS
SF-539 CNS = test system: SF-539 CNS
SK-MEL-2 melanoma = test system: SK-MEL-2 melanoma
SK-MEL-28 melanoma = test system: SK-MEL-28 melanoma
SK-MEL-5 melanoma = test system: SK-MEL-5 melanoma
SK-OV-3 ovarian = test system: SK-OV-3 ovarian
SN12C renal = test system: SN12C renal
SNB-19 CNS = test system: SNB-19 CNS
SR leukemia = test system: SR leukemia
SW-620 colon = test system: SW-620 colon
T-47D breast = test system: T-47D breast
TK-10 renal = test system: TK-10 renal
U251 CNS = test system: U251 CNS
UACC-257 melanoma = test system: UACC-257 melanoma
UACC-62 melanoma = test system: UACC-62 melanoma
UO-31 renal = test system: UO-31 renal

## c1cc2ccc3cc2cc1CNCCN1CCNCc2ccc4ccc(cc4c2)CNCCN(CCNC3)CCNCc2ccc3ccc(cc3c2)CNCC1
786-0 renal
  GI50: 10.4 µM
  TGI: 35.4 µM
A498 renal
  GI50: 10.9 µM
  TGI: 30.4 µM
A549 NSCLC
  GI50: 2620 nM
  TGI: > 100 µM
ACHN renal
  GI50: 39.4 µM
  TGI: > 100 µM
BT-549 breast
  GI50: 2510 nM
  TGI: 7.77 µM
CAKI-1 renal
  GI50: 41 µM
  TGI: > 100 µM
CCRF-CEM leukemia
  GI50: 2340 nM
  TGI: > 100 µM
COLO 205 colon
  GI50: 2120 nM
  TGI: 6.86 µM
DU-145 prostate
  GI50: 2100 nM
  TGI: 5.83 µM
EKVX NSCLC
  GI50: 4.84 µM
  TGI: > 100 µM
HCC-2998 colon
  GI50: 2270 nM
  TGI: 6.4 µM
HCT-116 colon
  GI50: 2570 nM
  TGI: 8.82 µM
HCT-15 colon
  GI50: 80.1 µM
  TGI: > 100 µM
HL-60(TB) leukemia
  GI50: 2320 nM
  TGI: 5.53 µM
HOP-62 NSCLC
  GI50: 2990 nM
  TGI: 13.2 µM
HOP-92 NSCLC
  GI50: 1310 nM
  TGI: 5.41 µM
HS 578T breast
  GI50: 3000 nM
  TGI: 17.4 µM
IGROV1 ovarian
  GI50: 2890 nM
  TGI: 13.1 µM
K-562 leukemia
  GI50: 1910 nM
  TGI: > 100 µM
KM12 colon
  GI50: 2540 nM
  TGI: 6.47 µM
LOX IMVI melanoma
  GI50: 2030 nM
  TGI: 4.42 µM
M14 melanoma
  GI50: 3.27 µM
  TGI: 13.1 µM
MALME-3M melanoma
  GI50: 2110 nM
  TGI: 5.58 µM
MCF7 breast
  GI50: 392 nM
  TGI: 5.15 µM
MDA-MB-231 breast
  GI50: 1910 nM
  TGI: 6.99 µM
MDA-MB-435
  GI50: 2410 nM
  TGI: 6.25 µM
MOLT-4 leukemia
  GI50: 2820 nM
  TGI: 9.35 µM
NCI-H226 lung
  GI50: 2270 nM
  TGI: 6.11 µM
NCI-H23 lung
  GI50: 1980 nM
  TGI: 5.99 µM
NCI-H460 lung
  GI50: 2950 nM
  TGI: 10.8 µM
NCI-H522 lung
  GI50: 431 nM
  TGI: 5.56 µM
NCI/ADR-RES ovarian
  GI50: > 100 µM
  TGI: > 100 µM
OVCAR-3 ovarian
  GI50: 2660 nM
  TGI: 8.04 µM
OVCAR-4 ovarian
  GI50: 2890 nM
  TGI: 7.22 µM
OVCAR-5 ovarian
  GI50: 2380 nM
  TGI: 7.96 µM
OVCAR-8 ovarian
  GI50: 3.61 µM
  TGI: > 100 µM
PC-3 prostate
  GI50: 2220 nM
  TGI: 6.99 µM
RPMI-8226 leukemia
  GI50: 1620 nM
  TGI: 6.03 µM
RXF 393 renal
  GI50: 17.3 µM
  TGI: 39.4 µM
SF-268 CNS
  GI50: 2250 nM
  TGI: 6.44 µM
SF-295 CNS
  GI50: 11.9 µM
  TGI: 38.9 µM
SF-539 CNS
  GI50: 1890 nM
  TGI: 4.87 µM
SK-MEL-2 melanoma
  GI50: 2360 nM
  TGI: 5.89 µM
SK-MEL-28 melanoma
  GI50: 2420 nM
  TGI: 6.32 µM
SK-MEL-5 melanoma
  GI50: 56 µM
  TGI: > 100 µM
SK-OV-3 ovarian
  GI50: 2800 nM
  TGI: 8.3 µM
SN12C renal
  GI50: 1710 nM
  TGI: 8.57 µM
SNB-19 CNS
  GI50: 2660 nM
  TGI: 8.38 µM
SR leukemia
  GI50: 2130 nM
  TGI: 7.87 µM
SW-620 colon
  GI50: 3.36 µM
  TGI: > 100 µM
T-47D breast
  GI50: 2050 nM
  TGI: 7.54 µM
TK-10 renal
  GI50: 18.6 µM
  TGI: 64.8 µM
U251 CNS
  GI50: 1480 nM
  TGI: 10.4 µM
UACC-257 melanoma
  GI50: 3.93 µM
  TGI: > 100 µM
UACC-62 melanoma
  GI50: 2370 nM
  TGI: 6.95 µM
UO-31 renal
  GI50: > 100 µM
  TGI: > 100 µM
